Patent publication US8278300B2, “Use for PDE5 inhibitors” (Nycomed GmbH, priority 2004, dated 2012)

Experiments:
[1] = test system: cerebral blood flow within the posterior cerebral artery; test: Transcranial Doppler of visually stimulated cerebral blood flow in pulmonary hypertension patients; assay type: in vivo, human; settings: for cerebral microvascular reactivity: patients with chronic pulmonary hypertension
Source text: It has been shown—contrary to the skilled person's expectation, that the vasodilating effect achieved with a PDE5 inhibitor extends to the improvement of the kinetics in blood flow changes upon stimulation of the cortex by utilizing a visual stimulation paradigm. This could be shown by using the doppler-ultrasound technology which can measure the heart-beat dependent pulsatile blood flow within the basale cerebral vasculature with very high resolution. With a standard visual stimulation the Doppler is able by insonate the posterior cerebral artery to measure the activity-dependent blood-flow-regulation. [Rosengarten et al. (2001) Neurovascular coupling in terms of a control system: validation of a second-order linear system model. Ultrasound Med. Biol. 27: 631-5; Babikian et al. (2000) Transcranial Doppler ultrasonography: year 2000 update. J Neuroimaging 10: 101-115]
A pharmaceutical preparation comprising a PDE5 inhibitor can be used to treat patients with primary and secondary pulmonary hypertension. […] The hemodynamics aspects of the cerebral blood flow modulation can be described by a mathematical model (see Rosengarten et al., Headache 2003; 43: 458-463). This cited model contains a parameter T which defines the initial fast responding properties of the blood flow upon visual stimulation and three parameters (K, ζ and ω) which define the delayed adjustment of the […] blood flow. T is called the hold-back-time or rate time, K is the gain (which means change in blood flow velocity upon visual stimulation),ζ the attenuation (which represents the dampening due to vessel wall attenuation) and ω the natural frequency (represents the oscillating properties in dynamic neurovascular coupling). Patients with primary and secondary pulmonary hypertension display a pulmonary disturbance between ventilation of the alveoli and their perfusion. Such a demand-dependent inadequate perfusion has also been shown for the vasculature near the muscles. In this invention it is shown that patients with pulmonary hypertension display an increase in the rate time (meaning T is larger) and an enhanced attenuation ζ of the cerebral blood flow within the posterior cerebral artery upon visual stimulation. Thus it is shown that the mentioned disturbed micro-perfusion observed in patients with pulmonary hypertension extents to that of the brain. […] In addition the pro-longed hold-back time (rate time) in the patients is shortened by treatment with the PDE5-inhibitor sildenafil. This measurements have been performed 1 h after sildenafil intake but all responses to oral sildenafil outlasted 120-150 min.
In contrast to sildenafil iloprost treatment (2,8 μg inhaled in 4 min) worsens the impaired rate time and attenuation in patients with pulmonary hypertension (FIG. 1).
FIG. 1. Assessment of cerebral flow characteristics. Values for rate time and attenuation are presented in this graph. Medians (filled circles) and 95% confidence intervals (bars) are given for healthy controls, and patients at baseline (untreated), after iloprost inhalation, and subsequent to oral sildenafil intake. Statistical differences were assessed by ANOVA (p-values indicate significant differences between groups). Fisher's post hoc test was calculated at a significance level of p<0.05;

pulmonary circulation = test: Pulmonary haemodynamics in patients with chronic pulmonary hypertension; assay type: in vivo, human; settings: inhaled iloprost, oral sildenafil
stroke in rats = settings: cited from earlier work
[2] = test system: rats with LPS-induced sepsis; test: LPS-induced sepsis in anaesthetized rats: sensoric evoked potentials and evoked cerebral blood flow; assay type: in vivo, rat; settings: 4½ h after inducing sepsis with LPS
Procedure: Modulation of the cerebral blood flow evoked by repetitive electrical stimulation of the sole of one foot of the rats is measured by Doppler ultrasound technology as well as the sensoric evoked neuronal potentials (SEPs) by EEG. Baseline measurements are performed before application of LPS to the rats to induce sepsis.

[3] = test system: epicardial coronary arteries; settings: patients with coronary artery disease; cited from earlier work
[4] = patients with pulmonary hypertension, iloprost 2,8 μg inhaled in 4 min

Row | SMILES | cerebral microvascular reactivity [1] | attenuation of cerebral blood flow upon visual stimulation [1, 4] | rate time of cerebral blood flow upon visual stimulation [1, 4] | pulmonary arterial pressure (pulmonary circulation) | pulmonary vascular resistance (pulmonary circulation) | functional recovery after stroke (stroke in rats) | neurogenesis after stroke (stroke in rats) | stimulus induced cerebral blood flow ([2]; Doppler ultrasound) | amplitude of the SEP (sensoric evoked neuronal potentials) ([2]; electrical stimulation of one foot) | duration of responses to oral sildenafil ([1]; patients with pulmonary hypertension, 50 mg oral) [min] | hold-back time (rate time) T of cerebral blood flow upon visual stimulation ([1]; patients with pulmonary hypertension, sildenafil 50 mg, oral, 1 h after intake) | attenuation parameter ζ of cerebral blood flow upon visual stimulation ([1]; patients with pulmonary hypertension, sildenafil 50 mg, oral, one hour before measurement) | relaxation of epicardial coronary arteries [3]
1 | CC#CCC(C)[C@H](O)/C=C/[C@@H]1[C@H]2C/C(=C/CCCC(=O)O)C[C@H]2C[C@H]1O (stereo partly shown) [iloprost] | gradually worsened | worsens | worsens | significant reduction | significant reduction |  |  |  |  |  |  |  | 
2 | CCCc1nn(C)c2c(=O)[nH]c(-c3cc(S(=O)(=O)N4CCN(C)CC4)ccc3OCC)nc12 [sildenafil, 5-[2-ethoxy-5-(4-methylpiperazin-1-ylsulfonyl)phenyl]-1,6-dihydro-1-methyl-3-propylpyrazolo[4,3-d]pyrimidin-7-one] | significantly improved |  |  | significant reduction | significant reduction | promotes functional recovery | induces neurogenesis | greatly restores | greatly restores | 120 to 150 | shortened | significantly reduced | relax epicardial coronary arteries
